Values joined by “and” are separate entries in the source; they are usually repeats but may differ in a detail not shown here. Equal values may be shown once.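 Following 48 hours of exposure in 96-well plates, responses at five concentrations were used to interpolate endpoints linearly. Here, GI50 denotes the concentration required for 50% inhibition of growth. The concentration for full growth arrest is given as TGI.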
How the values were obtained:
Test in all cases: growth of human tumour cells (NCI), 48 h
ACHN renal = system: ACHN renal
NCI/ADR-RES ovarian = system: NCI/ADR-RES ovarian
RPMI-8226 leukemia = system: RPMI-8226 leukemia
SF-539 CNS = system: SF-539 CNS
SN12C renal = system: SN12C renal

O=c1c2c(oc3ccccc13)-c1ccccc1OC2
TGI (ACHN renal): > 100 µM
TGI (NCI/ADR-RES ovarian): > 100 µM
TGI (RPMI-8226 leukemia): > 100 µM
TGI (SF-539 CNS): 72.7 µM
TGI (SN12C renal): > 100 µM

Cc1cc2c(cc1-c1cc3c(cc1C)C(C(C)C)=C(O)C(=O)/C3=C\Nc1c3ccccc3nc3ccccc13)/C(=C/Nc1c3ccccc3nc3ccccc13)C(=O)C(O)=C2C(C)C
TGI (ACHN renal): 5.91 µM
TGI (NCI/ADR-RES ovarian): 12.9 µM
TGI (RPMI-8226 leukemia): > 100 µM
TGI (SF-539 CNS): 16.1 µM
TGI (SN12C renal): 22 µM

COc1cc(O)c2c(=O)cc(-c3ccc(O)cc3O)oc2c1CC=C(C)C
TGI (ACHN renal): 30.4 µM
TGI (NCI/ADR-RES ovarian): > 100 µM
TGI (RPMI-8226 leukemia): > 100 µM
TGI (SF-539 CNS): 34.7 µM
TGI (SN12C renal): 31.5 µM

CS(=O)(=O)c1nc(-c2cc3c(c(S(C)(=O)=O)n2)CCC3)cc2c1CCCCC2
TGI (ACHN renal): > 100 µM
TGI (NCI/ADR-RES ovarian): > 100 µM
TGI (RPMI-8226 leukemia): > 100 µM
TGI (SN12C renal): > 100 µM

O=C1/C(=C\c2ccc(O)cc2)CCC/C1=C/c1ccc(Cl)c(Cl)c1
TGI (ACHN renal): 12.1 µM
TGI (NCI/ADR-RES ovarian): 4.27 µM
TGI (RPMI-8226 leukemia): 5.76 µM
TGI (SN12C renal): 10.4 µM

O=C(CC(=O)N(C(=O)/C=C\c1ccccc1)c1ccc(Cl)cc1)N1N=C(c2ccccc2)C(N=Nc2cccc([N+](=O)[O-])c2)C1=O (stereo unspecified)
TGI (ACHN renal): > 100 µM
TGI (NCI/ADR-RES ovarian): 22 µM
TGI (RPMI-8226 leukemia): 93.4 µM
TGI (SF-539 CNS): 25.8 µM
TGI (SN12C renal): > 100 µM

COC(=O)C1(C(=O)OC)Cc2ccc(OC)cc2C2=C1C(=O)c1ccccc1C2=O
TGI (ACHN renal): 15.1 µM
TGI (NCI/ADR-RES ovarian): > 28.4 µM
TGI (SF-539 CNS): 30.7 µM
TGI (SN12C renal): 14.4 µM

CCc1c2c([nH]c(=S)c1C#N)CCC2
TGI (ACHN renal): > 100 µM
TGI (NCI/ADR-RES ovarian): > 100 µM
TGI (RPMI-8226 leukemia): > 100 µM

O=C1/C(=C/c2cccc(F)c2)CCCc2ccccc21
TGI (ACHN renal): 33.1 µM
TGI (NCI/ADR-RES ovarian): 33.1 µM
TGI (RPMI-8226 leukemia): 53.7 µM
TGI (SF-539 CNS): 31.2 µM
TGI (SN12C renal): 31.8 µM

CCOC(CN(C)C(=O)Nc1cccc2ccccc12)OCC
TGI (ACHN renal): > 10 µM
TGI (NCI/ADR-RES ovarian): > 10 µM
TGI (RPMI-8226 leukemia): > 10 µM
TGI (SF-539 CNS): > 10 µM
TGI (SN12C renal): > 10 µM

C=CCN1C(=O)/C(=C/c2ccco2)N=C1SC/C=C/C
TGI (ACHN renal): > 100 µM
TGI (NCI/ADR-RES ovarian): > 100 µM
TGI (RPMI-8226 leukemia): 76.6 µM
TGI (SF-539 CNS): > 100 µM
TGI (SN12C renal): > 100 µM

CNC1=C(C)C(=O)C(=O)C([C@H](C)CCC=C(C)C)=C1O
TGI (ACHN renal): 39.4 µM
TGI (NCI/ADR-RES ovarian): > 38.4 µM
TGI (RPMI-8226 leukemia): > 94.3 µM
TGI (SN12C renal): > 100 µM

O=C(Nc1ccc(Cl)cc1)NS(=O)(=O)c1coc2cc(F)ccc2c1=O
TGI (ACHN renal): > 100 µM
TGI (NCI/ADR-RES ovarian): > 100 µM
TGI (SF-539 CNS): > 100 µM
TGI (SN12C renal): > 100 µM

N#Cc1c(N)nc(-c2ccc(Cl)cc2)c2c1-c1ccccc1S(=O)(=O)CC2
TGI (ACHN renal): > 100 µM
TGI (NCI/ADR-RES ovarian): > 100 µM
TGI (RPMI-8226 leukemia): > 100 µM
TGI (SN12C renal): > 100 µM

O=C(NC1=NCC(CN2CCN(c3ccccc3)CC2)O1)Nc1ccccc1 (stereo unspecified)
TGI (ACHN renal): > 100 µM
TGI (NCI/ADR-RES ovarian): > 100 µM
TGI (RPMI-8226 leukemia): > 100 µM
TGI (SN12C renal): > 100 µM

O=C1c2cc(Cl)ccc2-n2cnnc2C2CSCN12 (stereo unspecified)
TGI (ACHN renal): > 100 µM
TGI (NCI/ADR-RES ovarian): > 100 µM
TGI (RPMI-8226 leukemia): > 100 µM
TGI (SN12C renal): > 100 µM

O=C1CCCCC/C1=C\c1cccc(Cl)c1
TGI (ACHN renal): > 100 µM
TGI (RPMI-8226 leukemia): > 100 µM
TGI (SN12C renal): > 100 µM

CCSc1[nH]c(NC(=S)NC(=O)c2ccccc2Cl)c(C(N)=O)c1C(N)=O
TGI (RPMI-8226 leukemia): > 10 µM
TGI (SN12C renal): > 10 µM

O=C(O)c1nc2cc(C(F)(F)F)ccc2nc1Nc1ccc(F)cc1
TGI (ACHN renal): 35.2 µM
TGI (NCI/ADR-RES ovarian): > 100 µM
TGI (RPMI-8226 leukemia): > 100 µM
TGI (SF-539 CNS): 32.4 µM

CC[C@]1(Cc2ccc(OC)c(OC)c2)C=[N+]([O-])O[C@H](OC2CCCC2(c2ccccc2)c2ccccc2)[C@@H]1OC(=O)c1ccccc1 (stereo partly specified)
TGI (ACHN renal): > 34.8 µM
TGI (NCI/ADR-RES ovarian): > 62.7 µM
TGI (SF-539 CNS): > 100 µM
TGI (SN12C renal): > 88.2 µM

CCCCCCCCCCCCCCCCCCNc1ccn(C2OC(COP(=O)(O)OCC3OC(n4cc(F)c(=O)[nH]c4=O)CC3O)C(O)C2O)c(=O)n1 (stereo unspecified)
TGI (ACHN renal): > 100 µM
TGI (NCI/ADR-RES ovarian): > 54.8 µM
TGI (RPMI-8226 leukemia): > 53.3 µM
TGI (SN12C renal): > 100 µM

O=C1NC2ON=C(c3ccccc3)C2C2ON=C(c3ccccc3)N12 (stereo unspecified)
TGI (ACHN renal): > 100 µM
TGI (NCI/ADR-RES ovarian): > 100 µM
TGI (SF-539 CNS): > 100 µM

CC1C2(C)OC(=N)C(C#N)(C(c3ccccc3)O2)C1(C#N)C#N (stereo unspecified)
TGI (ACHN renal): > 100 µM
TGI (NCI/ADR-RES ovarian): > 100 µM
TGI (SF-539 CNS): 40.3 µM
TGI (SN12C renal): 32 µM

C=CCNC1=C2C[C@@H](C)C[C@@H](OC)[C@H](OC(=O)CCN)[C@H](C)/C=C(\C)[C@@H](OC(N)=O)[C@H](OC)/C=C\C=C(/C)C(=O)NC(=CC1=O)C2=O
TGI (ACHN renal): 25.2 µM
TGI (NCI/ADR-RES ovarian): > 100 µM
TGI (RPMI-8226 leukemia): 32.5 µM
TGI (SN12C renal): 16.2 µM

O=C1/C(=C/c2cccc(Br)c2)CCc2ccccc21
TGI (ACHN renal): 27.7 µM
TGI (NCI/ADR-RES ovarian): 33.2 µM
TGI (SF-539 CNS): 31.4 µM
TGI (SN12C renal): 29.2 µM

COC(=O)/C=C(/C)n1nc2ccccc2n1
TGI (ACHN renal): > 100 µM
TGI (NCI/ADR-RES ovarian): > 100 µM
TGI (RPMI-8226 leukemia): > 100 µM
TGI (SN12C renal): > 100 µM

CC(C)OC(=O)c1ccc(NCc2cc(O)ccc2O)cc1Cl
TGI (ACHN renal): 7.83 µM
TGI (NCI/ADR-RES ovarian): > 100 µM
TGI (SF-539 CNS): 6.07 µM
TGI (SN12C renal): 32.2 µM

N#Cc1c(-c2ccccc2)cc(-c2ccccc2)n(C2OC(CO)C(O)C(O)C2O)c1=S (stereo unspecified)
GI50 (ACHN renal): 30.7 µM and 66.6 µM
TGI (ACHN renal): > 100 µM
TGI (NCI/ADR-RES ovarian): > 100 µM
TGI (RPMI-8226 leukemia): 56.3 µM and > 100 µM
GI50 (SN12C renal): 36.8 µM and 84.1 µM
TGI (SN12C renal): > 100 µM

Reference: PubChem BioAssay (NCI)
